Like-named read-outs stand apart in the source and are kept apart here.
Key:
Format in all cases: in vivo
Zymoseptoria tritici = assay: Leaf blotch of wheat (SEPTTR), disease control on wheat seedlings; conditions: for pest or weed control at 121.5 g/ha: low volume application at 121.5 g/H; for pest or weed control at 100 ppm: high volume application at 100 ppm
How it was run: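 Yuma wheat seedlings with the first leaf fully emerged were sprayed to run-off with compound in acetone plus nine volumes of water containing 110 ppm Triton X-100; track-spray tests used EC formulations with 0.1% Trycol 5941. Z. tritici inoculation came before or after treatment, followed by 100% RH dew periods and a 20 °C greenhouse. Percent control was calculated from severity versus untreated plants.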

Puccinia triticina = assay: Wheat brown rust (PUCCRT), disease control on wheat seedlings; conditions: for pest or weed control at 121.5 g/ha: low volume application at 121.5 g/H; for pest or weed control at 100 ppm: high volume application at 100 ppm
How it was run: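 Compounds in acetone, diluted with nine volumes of water containing 110 ppm Triton X-100, sprayed to run-off on first-leaf Yuma wheat seedlings; track-spray tests used EC formulations with 0.1% Trycol 5941. Puccinia triticina spores applied before or after treatment. Overnight dark dew room at 22° C, 100% humidity, then greenhouse at 24° C.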

Phakopsora pachyrhizi = assay: Asian soybean rust (PHAKPA), disease control on soybean seedlings; conditions: High volume application at 25 ppm
Description: Technical grades of materials were dissolved in acetone, which were then mixed with nine volumes of water containing 0.011% Tween 20. The fungicide solutions were applied onto soybean seedlings using an automated booth sprayer to run-off. All sprayed plants were allowed to air dry prior to further handling.
Soybean plants (variety Williams 82) were grown in soil-less Metro mix, with one plant per pot. Two week old seedlings were used for testing. Plants were inoculated either 3 days prior to or 1 day after fungicide treatments. Plants were incubated for 24 h in a dark dew room at 22° C. and 100% relative humidity then transferred to a growth room at 23° C. for disease to develop. Disease severity was assessed on the sprayed leaves.

[1] = 24 h, 1 Day Protectant, read-out: SEPTTR disease control, 1DP, LV activity
[2] = 72 h, 3 Day Curative, read-out: SEPTTR disease control, 3DC, LV activity
[3] = 24 h, 1 Day Protectant, read-out: PUCCRT disease control, 1DP, LV activity
[4] = 72 h, 3 Day Curative, read-out: PUCCRT disease control, 3DC, LV activity
[5] = 24 h, 1 Day Protectant, read-out: PHAKPA 1DP disease control rating
[6] = 72 h, 3 Day Curative, read-out: PHAKPA 3DC disease control rating
[7] = 24 h, 1 Day Protectant, wheat leaf blotch, read-out: SEPTTR 1DP disease control, LV activity
[8] = 72 h, 3 Day Curative, wheat leaf blotch, read-out: SEPTTR 3DC disease control, LV activity
[9] = 24 h, 1 Day Protectant, wheat brown rust, read-out: PUCCRT 1DP disease control, LV activity
[10] = 72 h, 3 Day Curative, wheat brown rust, read-out: PUCCRT 3DC disease control, LV activity
[11] = 24 h, 1 Day Protectant, read-out: SEPTTR disease control, 1DP, HV activity
[12] = 72 h, 3 Day Curative, read-out: SEPTTR disease control, 3DC, HV activity
[13] = 24 h, 1 Day Protectant, read-out: PUCCRT disease control, 1DP, HV activity
[14] = 72 h, 3 Day Curative, read-out: PUCCRT disease control, 3DC, HV activity

For `COCCC(=O)Oc1c(OC)ccnc1C(=O)N[C@H](C(=O)O[C@@H](C)[C@H](c1ccc(F)cc1C)C(C)C)C(C)C` [Compound 351], the pest or weed control at 121.5 g/ha (Zymoseptoria tritici; [1]) was > 80%, the pest or weed control at 121.5 g/ha (Zymoseptoria tritici; [2]) was < 80% and the pest or weed control at 121.5 g/ha (Puccinia triticina; [3]) was > 80%. For the same molecule, the pest or weed control at 121.5 g/ha (Puccinia triticina; [4]) was < 80%, the pest or weed control at 25 ppm (Phakopsora pachyrhizi; [5]) was > 80% and the pest or weed control at 25 ppm (Phakopsora pachyrhizi; [6]) was < 80%.
For `COCCC(=O)Oc1c(OC)ccnc1C(=O)N[C@@H](C)C(=O)O[C@@H](C)[C@H](c1ccc(F)cc1OC)C1CCC1` [Compound 238], the pest or weed control at 121.5 g/ha (Zymoseptoria tritici; [1]) was < 80%, the pest or weed control at 121.5 g/ha (Zymoseptoria tritici; [2]) was < 80% and the pest or weed control at 121.5 g/ha (Puccinia triticina; [3]) was < 80%. For the same molecule, the pest or weed control at 121.5 g/ha (Puccinia triticina; [4]) was < 80%, the pest or weed control at 25 ppm (Phakopsora pachyrhizi; [5]) was < 80% and the pest or weed control at 25 ppm (Phakopsora pachyrhizi; [6]) was < 80%.
With `COc1ccnc(C(=O)N[C@@H](C)C(=O)O[C@@H](C)[C@@H](c2ccc(F)cc2F)C(C)C)c1OC(C)=O` [Compound 368] the pest or weed control at 121.5 g/ha (Zymoseptoria tritici; [7]) was < 80%, the pest or weed control at 121.5 g/ha (Zymoseptoria tritici; [8]) was < 80% and the pest or weed control at 121.5 g/ha (Puccinia triticina; [9]) was < 80%. The pest or weed control at 121.5 g/ha (Puccinia triticina; [10]) was < 0%, the pest or weed control at 25 ppm (Phakopsora pachyrhizi; [5]) was < 80% and the pest or weed control at 25 ppm (Phakopsora pachyrhizi; [6]) was < 80%.
With `COc1ccc([C@H](C(C)C)[C@H](C)OC(=O)[C@H](C)NC(=O)c2nccc(OC)c2O)cc1` [Compound 338] the pest or weed control at 100 ppm (Zymoseptoria tritici; [11]) was < 80%, the pest or weed control at 100 ppm (Zymoseptoria tritici; [12]) was < 80% and the pest or weed control at 100 ppm (Puccinia triticina; [13]) was > 80%. The pest or weed control at 100 ppm (Puccinia triticina; [14]) was > 80%.
With `COc1ccc([C@H](C(C)C)[C@H](C)OC(=O)[C@H](C)NC(=O)c2nccc(OC)c2OCOC(C)=O)c(F)c1` [Compound 257] the pest or weed control at 121.5 g/ha (Zymoseptoria tritici; [1]) was > 80%, the pest or weed control at 121.5 g/ha (Puccinia triticina; [3]) was > 80% and the pest or weed control at 121.5 g/ha (Puccinia triticina; [4]) was > 80%.
`CCC(C)[C@@H](c1ccccc1C)[C@H](C)OC(=O)[C@H](C)NC(=O)c1nccc(OC)c1OC(=O)C(C)C` (stereo partly shown) [Compound 386] was tested, and the pest or weed control at 121.5 g/ha (Zymoseptoria tritici; [7]) was < 80%, the pest or weed control at 121.5 g/ha (Zymoseptoria tritici; [8]) was > 80% and the pest or weed control at 121.5 g/ha (Puccinia triticina; [9]) was > 80%. For the same molecule, the pest or weed control at 121.5 g/ha (Puccinia triticina; [10]) was > 80%.
`COc1ccccc1[C@H](C(C)C)[C@H](C)OC(=O)[C@H](C)NC(=O)c1nccc(OC)c1OCOC(C)=O` [Compound 263] was tested, and the pest or weed control at 121.5 g/ha (Zymoseptoria tritici; [1]) was < 80%, the pest or weed control at 121.5 g/ha (Zymoseptoria tritici; [2]) was > 80% and the pest or weed control at 121.5 g/ha (Puccinia triticina; [3]) was > 80%. The pest or weed control at 121.5 g/ha (Puccinia triticina; [4]) was > 80%.
With `COc1cc(F)ccc1[C@@H](C1CCCCC1)[C@H](C)OC(=O)[C@H](C)NC(=O)c1nccc(OC)c1O` [Compound 139] the pest or weed control at 100 ppm (Zymoseptoria tritici; [11]) was > 80%, the pest or weed control at 100 ppm (Zymoseptoria tritici; [12]) was < 0% and the pest or weed control at 100 ppm (Puccinia triticina; [13]) was > 80%. The pest or weed control at 100 ppm (Puccinia triticina; [14]) was < 80%.
For `COCCC(=O)Oc1c(OC)ccnc1C(=O)N[C@@H](C)C(=O)O[C@@H](C)[C@H](c1ccc(F)c(C)c1)C(C)C` [Compound 246], the pest or weed control at 121.5 g/ha (Zymoseptoria tritici; [1]) was > 80%, the pest or weed control at 121.5 g/ha (Puccinia triticina; [3]) was > 80% and the pest or weed control at 121.5 g/ha (Puccinia triticina; [4]) was > 80%.
`COc1ccnc(C(=O)N[C@@H](C)C(=O)O[C@@H](C)[C@H](c2ccccc2F)C(C)C)c1O` [Compound 323] was tested, and the pest or weed control at 100 ppm (Zymoseptoria tritici; [11]) was < 80%, the pest or weed control at 100 ppm (Zymoseptoria tritici; [12]) was > 80% and the pest or weed control at 100 ppm (Puccinia triticina; [13]) was > 80%. The pest or weed control at 100 ppm (Puccinia triticina; [14]) was > 80%.
In the case of `COc1ccnc(C(=O)N[C@@H](C)C(=O)O[C@@H](C)[C@H](c2ccc(C)cc2F)C(C)C)c1O` [Compound 329], the pest or weed control at 100 ppm (Zymoseptoria tritici; [11]) is reported as < 80%, the pest or weed control at 100 ppm (Zymoseptoria tritici; [12]) is reported as < 80% and the pest or weed control at 100 ppm (Puccinia triticina; [13]) is reported as > 80%. The pest or weed control at 100 ppm (Puccinia triticina; [14]) was > 80%.
With `COc1ccnc(C(=O)N[C@@H](C)C(=O)OC(C)[C@H](c2ccccc2)C2CCCC2)c1OCOC(C)=O` (stereo partly shown) [Compound 175] the pest or weed control at 121.5 g/ha (Zymoseptoria tritici; [1]) was > 80%, the pest or weed control at 121.5 g/ha (Zymoseptoria tritici; [2]) was > 80% and the pest or weed control at 121.5 g/ha (Puccinia triticina; [3]) was > 80%. For the same molecule, the pest or weed control at 121.5 g/ha (Puccinia triticina; [4]) was > 80%.

Source: patent US20180186742A1, “PICOLINAMIDES AS FUNGICIDES” (Dow AgroSciences LLC, priority 2017, published 2018)
